{
  "source": "ChEMBL document CHEMBL1201862",
  "about": "“PubChem BioAssay data set” (2004)",
  "key": {"[1]": {"biological_target": "Transitional endoplasmic reticulum ATPase (Homo sapiens, UniProt P55072, C522A)", "sequence (P55072 2-806 C522A limits assumed)": "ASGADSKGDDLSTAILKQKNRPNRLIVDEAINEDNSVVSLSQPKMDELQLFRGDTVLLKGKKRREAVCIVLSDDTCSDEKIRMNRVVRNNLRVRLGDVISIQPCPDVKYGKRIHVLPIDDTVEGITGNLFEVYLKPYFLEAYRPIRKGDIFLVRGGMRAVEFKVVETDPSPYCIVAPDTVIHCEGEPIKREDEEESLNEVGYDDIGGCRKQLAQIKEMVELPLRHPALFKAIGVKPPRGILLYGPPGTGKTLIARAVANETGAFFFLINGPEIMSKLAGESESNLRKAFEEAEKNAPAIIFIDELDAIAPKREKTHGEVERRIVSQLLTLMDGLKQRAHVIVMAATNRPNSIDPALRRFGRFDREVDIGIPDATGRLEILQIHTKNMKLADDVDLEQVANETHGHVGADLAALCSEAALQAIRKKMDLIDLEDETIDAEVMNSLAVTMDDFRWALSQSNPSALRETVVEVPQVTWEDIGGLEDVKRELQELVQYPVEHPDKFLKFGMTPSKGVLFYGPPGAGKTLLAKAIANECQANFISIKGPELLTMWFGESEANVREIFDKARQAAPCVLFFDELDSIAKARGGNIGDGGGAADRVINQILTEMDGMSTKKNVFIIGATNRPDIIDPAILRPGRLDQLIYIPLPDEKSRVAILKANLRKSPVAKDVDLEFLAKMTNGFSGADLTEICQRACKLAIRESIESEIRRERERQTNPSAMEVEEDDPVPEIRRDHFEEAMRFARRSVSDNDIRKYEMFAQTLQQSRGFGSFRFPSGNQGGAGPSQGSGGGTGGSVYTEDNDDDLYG", "experiment": "Luminescence counterscreen assay for p97 inhibitors: dose response biochemical high throughput screening assay to identify inhibitors of the C522A mutant p97 ATPase: synthesized compounds. [Related pubchem assays: 1481, 1517, 1551 ]"}, "[2]": {"biological_target": "Transitional endoplasmic reticulum ATPase (Homo sapiens, UniProt P55072)", "sequence (P55072 whole entry)": "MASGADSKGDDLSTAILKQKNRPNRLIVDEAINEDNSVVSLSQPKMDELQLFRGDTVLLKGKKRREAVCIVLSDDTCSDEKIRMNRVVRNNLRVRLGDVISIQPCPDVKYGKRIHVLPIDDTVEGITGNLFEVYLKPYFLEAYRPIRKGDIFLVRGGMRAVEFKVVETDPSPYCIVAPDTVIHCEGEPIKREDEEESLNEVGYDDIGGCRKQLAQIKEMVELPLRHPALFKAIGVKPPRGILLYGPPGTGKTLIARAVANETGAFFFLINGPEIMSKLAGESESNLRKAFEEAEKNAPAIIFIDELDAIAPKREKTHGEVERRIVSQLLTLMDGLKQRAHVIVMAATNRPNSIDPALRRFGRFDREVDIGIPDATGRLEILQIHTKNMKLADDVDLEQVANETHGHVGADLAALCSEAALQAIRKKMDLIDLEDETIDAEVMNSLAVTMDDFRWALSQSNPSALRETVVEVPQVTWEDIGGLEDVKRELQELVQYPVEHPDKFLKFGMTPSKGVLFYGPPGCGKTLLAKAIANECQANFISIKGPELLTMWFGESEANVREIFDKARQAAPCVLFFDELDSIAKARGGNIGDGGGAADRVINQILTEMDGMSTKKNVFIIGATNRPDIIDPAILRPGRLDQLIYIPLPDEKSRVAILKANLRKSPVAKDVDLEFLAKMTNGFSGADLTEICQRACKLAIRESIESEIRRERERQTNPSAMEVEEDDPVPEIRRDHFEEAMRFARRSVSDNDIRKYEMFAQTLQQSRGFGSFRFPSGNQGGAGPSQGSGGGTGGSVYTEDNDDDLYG", "experiment": "Luminescence dose response biochemical high throughput screening assay for inhibitors of the p97 ATPase: synthesized compounds. [Related pubchem assays: 1481, 1517 ]"}, "[3]": {"biological_target": "T1, Ion channel NompC (Danio rerio, UniProt Q7T1G6)", "T1 sequence (Q7T1G6 whole entry)": "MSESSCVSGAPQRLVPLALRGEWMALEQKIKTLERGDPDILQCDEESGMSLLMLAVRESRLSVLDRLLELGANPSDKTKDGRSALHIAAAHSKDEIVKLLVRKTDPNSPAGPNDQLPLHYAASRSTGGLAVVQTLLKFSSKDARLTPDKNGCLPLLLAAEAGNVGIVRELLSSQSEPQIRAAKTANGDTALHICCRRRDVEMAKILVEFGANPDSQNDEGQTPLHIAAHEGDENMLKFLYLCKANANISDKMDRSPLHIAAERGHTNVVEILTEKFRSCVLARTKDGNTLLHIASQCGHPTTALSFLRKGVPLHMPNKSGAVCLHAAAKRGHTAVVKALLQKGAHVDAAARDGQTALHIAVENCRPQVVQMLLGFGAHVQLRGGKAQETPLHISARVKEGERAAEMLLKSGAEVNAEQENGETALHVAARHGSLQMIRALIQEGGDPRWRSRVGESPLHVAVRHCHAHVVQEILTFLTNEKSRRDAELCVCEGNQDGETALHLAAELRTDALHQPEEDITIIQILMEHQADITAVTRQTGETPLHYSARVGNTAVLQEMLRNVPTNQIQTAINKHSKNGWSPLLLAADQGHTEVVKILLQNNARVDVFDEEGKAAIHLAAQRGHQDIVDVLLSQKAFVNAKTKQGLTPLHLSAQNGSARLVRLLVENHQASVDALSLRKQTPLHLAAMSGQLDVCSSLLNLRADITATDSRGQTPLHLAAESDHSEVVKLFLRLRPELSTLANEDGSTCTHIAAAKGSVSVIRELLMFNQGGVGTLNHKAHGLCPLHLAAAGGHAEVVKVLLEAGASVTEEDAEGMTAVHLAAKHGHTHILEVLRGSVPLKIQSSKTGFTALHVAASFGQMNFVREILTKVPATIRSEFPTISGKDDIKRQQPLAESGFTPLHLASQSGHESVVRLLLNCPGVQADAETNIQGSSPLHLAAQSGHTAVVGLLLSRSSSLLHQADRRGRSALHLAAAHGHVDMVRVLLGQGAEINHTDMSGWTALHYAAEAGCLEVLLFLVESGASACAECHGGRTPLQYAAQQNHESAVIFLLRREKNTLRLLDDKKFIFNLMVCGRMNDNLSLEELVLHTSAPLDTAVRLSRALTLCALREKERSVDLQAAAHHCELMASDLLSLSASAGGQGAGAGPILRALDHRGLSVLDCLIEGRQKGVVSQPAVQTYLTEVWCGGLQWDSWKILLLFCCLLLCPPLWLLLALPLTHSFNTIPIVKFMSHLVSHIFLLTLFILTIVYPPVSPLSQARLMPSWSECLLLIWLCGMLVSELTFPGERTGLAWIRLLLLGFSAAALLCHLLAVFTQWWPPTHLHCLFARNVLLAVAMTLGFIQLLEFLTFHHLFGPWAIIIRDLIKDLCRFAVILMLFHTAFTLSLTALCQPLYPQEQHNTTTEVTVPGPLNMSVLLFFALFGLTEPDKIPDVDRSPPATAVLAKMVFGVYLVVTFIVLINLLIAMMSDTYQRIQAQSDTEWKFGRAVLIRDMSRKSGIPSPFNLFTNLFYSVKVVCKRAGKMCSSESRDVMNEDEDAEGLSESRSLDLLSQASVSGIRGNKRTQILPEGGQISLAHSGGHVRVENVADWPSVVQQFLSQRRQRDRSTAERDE", "experiment": "Late stage counterscreen for the probe development effort to identify selective agonists of the Transient Receptor Potential Channels 3 (TRPML3): fluorescence-based cell-based dose response assay for TRPN1 agonists.", "format": "functional"}, "[4]": {"biological_target": "T2, Corticotropin-releasing factor receptor 2/Corticotropin-releasing factor-binding protein (Homo sapiens, UniProt P24387+Q13324)", "T2 sequence (Q13324 whole entry)": "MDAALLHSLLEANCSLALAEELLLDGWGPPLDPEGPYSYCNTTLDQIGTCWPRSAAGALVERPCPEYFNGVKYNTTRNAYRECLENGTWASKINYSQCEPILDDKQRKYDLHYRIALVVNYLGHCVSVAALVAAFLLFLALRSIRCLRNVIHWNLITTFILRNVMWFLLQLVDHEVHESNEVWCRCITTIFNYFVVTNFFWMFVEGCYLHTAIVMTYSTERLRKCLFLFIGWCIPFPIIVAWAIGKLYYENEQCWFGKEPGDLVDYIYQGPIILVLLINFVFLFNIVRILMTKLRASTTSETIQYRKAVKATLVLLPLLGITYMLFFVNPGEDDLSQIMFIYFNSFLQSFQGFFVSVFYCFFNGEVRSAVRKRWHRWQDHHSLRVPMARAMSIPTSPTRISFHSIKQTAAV", "T2 sequence (P24387 whole entry)": "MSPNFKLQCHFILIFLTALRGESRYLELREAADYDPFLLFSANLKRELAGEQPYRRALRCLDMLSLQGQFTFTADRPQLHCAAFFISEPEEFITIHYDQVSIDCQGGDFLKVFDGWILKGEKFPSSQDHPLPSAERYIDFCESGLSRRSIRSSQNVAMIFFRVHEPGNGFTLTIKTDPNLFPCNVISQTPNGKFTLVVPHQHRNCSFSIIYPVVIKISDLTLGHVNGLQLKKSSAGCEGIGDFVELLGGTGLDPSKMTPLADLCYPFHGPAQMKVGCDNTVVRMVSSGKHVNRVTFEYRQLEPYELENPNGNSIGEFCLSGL", "experiment": "activators of CRF receptor 2 with binding protein – uHTS hits, confirmation (AID 602473)", "format": "functional", "conditions": "read-out: EC50_Mean"}, "[5]": {"biological_target": "T1, Ion channel NompC", "experiment": "Fluorescence counterscreen assay for TRPML3 agonists: dose response cell-based high-throughput screening assay to identify agonists of the transient receptor potential channel N1 (TRPN1). [Related pubchem assays: 1526, 1424, 1448 ]", "format": "functional"}, "[6]": {"biological_target": "T3, Mucolipin-3 (Homo sapiens, UniProt Q8TDD5)", "T3 sequence (Q8TDD5 whole entry)": "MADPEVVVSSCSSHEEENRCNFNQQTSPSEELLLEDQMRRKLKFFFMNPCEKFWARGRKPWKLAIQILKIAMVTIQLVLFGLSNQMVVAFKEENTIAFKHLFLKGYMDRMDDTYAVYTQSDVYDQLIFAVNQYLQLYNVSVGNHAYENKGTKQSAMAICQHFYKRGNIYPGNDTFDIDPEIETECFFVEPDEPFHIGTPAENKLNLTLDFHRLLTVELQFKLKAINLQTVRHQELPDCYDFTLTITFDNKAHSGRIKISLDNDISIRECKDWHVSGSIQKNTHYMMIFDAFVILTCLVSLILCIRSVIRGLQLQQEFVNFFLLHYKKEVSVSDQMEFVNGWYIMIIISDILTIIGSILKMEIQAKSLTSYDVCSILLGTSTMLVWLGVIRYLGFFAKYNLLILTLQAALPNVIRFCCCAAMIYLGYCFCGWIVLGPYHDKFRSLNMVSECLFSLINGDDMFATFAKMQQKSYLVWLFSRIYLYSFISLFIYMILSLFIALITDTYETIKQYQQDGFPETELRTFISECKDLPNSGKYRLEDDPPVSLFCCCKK", "experiment": "Dose response cell-based high-throughput screening assay for agonists of the transient receptor potential channel ML3 (TRPML3). [Related pubchem assays: 1526, 1424, 1448 ]", "format": "functional"}, "[7]": {"biological_target": "T3, Mucolipin-3", "experiment": "TRPML3 agonist potency, dose response, cell-based, calcium fluorescence (AID 2510)", "format": "functional"}, "[8]": {"biological_target": "Beta Lactamase (Pseudomonas aeruginosa, UniProt Q932Y6)", "sequence (Q932Y6 whole entry)": "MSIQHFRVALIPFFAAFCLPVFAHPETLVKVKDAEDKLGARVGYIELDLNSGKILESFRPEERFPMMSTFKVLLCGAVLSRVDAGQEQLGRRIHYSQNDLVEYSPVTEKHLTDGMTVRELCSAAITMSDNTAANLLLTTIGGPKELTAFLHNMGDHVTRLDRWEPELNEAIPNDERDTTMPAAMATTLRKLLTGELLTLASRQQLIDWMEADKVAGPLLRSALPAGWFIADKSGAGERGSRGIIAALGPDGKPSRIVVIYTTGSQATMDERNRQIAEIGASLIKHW", "experiment": "beta-lactamase reporter inhibitor potency, dose response, artefact control for TLR9-MyD88 binding inhibitor project, BLA reporter cells, FRET fluorescence (AID 588341);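 note: cell based assay in CHO-K1 cells stably expressing beta-lactamase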", "format": "cell-based"}, "[9]": {"biological_target": "T4, Protein RecA (Mycobacterium tuberculosis, UniProt P9WHJ3)", "T4 sequence (P9WHJ3 whole entry)": "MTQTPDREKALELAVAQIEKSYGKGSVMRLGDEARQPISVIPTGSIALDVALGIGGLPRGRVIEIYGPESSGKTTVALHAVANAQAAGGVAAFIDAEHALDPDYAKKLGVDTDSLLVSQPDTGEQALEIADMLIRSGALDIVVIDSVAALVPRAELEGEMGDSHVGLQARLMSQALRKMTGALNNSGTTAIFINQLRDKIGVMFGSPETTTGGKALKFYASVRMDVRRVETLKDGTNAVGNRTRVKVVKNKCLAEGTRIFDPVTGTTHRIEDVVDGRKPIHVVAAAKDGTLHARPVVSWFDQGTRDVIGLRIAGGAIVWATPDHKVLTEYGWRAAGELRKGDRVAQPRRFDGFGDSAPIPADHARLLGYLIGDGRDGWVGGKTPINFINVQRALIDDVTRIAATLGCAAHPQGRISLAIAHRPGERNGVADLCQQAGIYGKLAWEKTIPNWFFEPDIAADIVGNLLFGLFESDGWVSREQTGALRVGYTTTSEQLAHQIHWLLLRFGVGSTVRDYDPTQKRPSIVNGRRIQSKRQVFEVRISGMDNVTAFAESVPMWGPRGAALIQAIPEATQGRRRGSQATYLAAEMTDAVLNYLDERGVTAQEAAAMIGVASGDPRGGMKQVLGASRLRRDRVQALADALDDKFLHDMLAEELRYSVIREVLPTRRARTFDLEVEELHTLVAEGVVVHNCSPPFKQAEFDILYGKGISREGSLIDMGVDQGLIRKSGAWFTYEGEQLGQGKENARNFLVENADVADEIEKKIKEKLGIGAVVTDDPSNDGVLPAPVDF", "experiment": "Fluorescence Cell-Free Homogeneous Dose Retest to Identify Inhibitors of RecA-Intein Splicing Activity. [Related pubchem assays (depositor defined):AID2097, AID2223, AID489010, AID492950]", "format": "functional"}, "[10]": {"experiment": "Luminescence Cell-Based Dose Confirmation HTS to Identify Inhibitors of Platelet Dense Granule Release. [Related pubchem assays: 1663 (Primary HTS), 1678 (Summary of Project)]", "format": "functional"}, "[11]": {"system": "A-375", "experiment": "A375 melanoma cell viability reduction, dose response, counter-screen for MITF modulator project, cherry-pick samples, set 2 (AID 540335)", "format": "functional, cell-based", "conditions": "Homo sapiens"}, "[12]": {"system": "CHO", "experiment": "cytotoxicity in TLR9-MyD88 CHO cells, dose response, cytotoxicity control for TLR9-MyD88 binding inhibitor project, cell-based, luminescence (AID 588339);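 note: CHO cells stably coexpressing TLR9 and MyD88 fusions from primary screen; compound exposure lasted 48 hours before viability readout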", "format": "functional, hamster", "conditions": "Cricetulus griseus"}, "[13]": {"biological_target": "T5, Sphingosine 1-phosphate receptor 4 (Homo sapiens, UniProt O95977)", "T5 sequence (O95977 whole entry)": "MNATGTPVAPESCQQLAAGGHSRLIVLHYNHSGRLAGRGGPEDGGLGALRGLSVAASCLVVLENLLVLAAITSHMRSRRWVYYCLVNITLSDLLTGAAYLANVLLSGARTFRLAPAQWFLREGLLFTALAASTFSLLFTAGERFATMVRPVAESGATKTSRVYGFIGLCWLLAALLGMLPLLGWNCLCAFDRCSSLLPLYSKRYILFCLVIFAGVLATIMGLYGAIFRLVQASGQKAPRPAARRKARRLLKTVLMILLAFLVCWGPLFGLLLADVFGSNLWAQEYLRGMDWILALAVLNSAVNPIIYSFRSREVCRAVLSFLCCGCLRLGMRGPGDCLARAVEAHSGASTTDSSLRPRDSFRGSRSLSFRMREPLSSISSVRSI", "experiment": "Fluorescence dose response cell-based high throughput screening assay for antagonists of the Sphingosine 1-Phosphate Receptor 4 (S1P4). [Related pubchem assays: 1524 (Confirmation in triplicates.), 1510 (Primary screen.)]", "format": "functional"}, "[14]": {"biological_target": "Luciferin 4-monooxygenase (Photinus pyralis, UniProt P08659)", "sequence (P08659 whole entry)": "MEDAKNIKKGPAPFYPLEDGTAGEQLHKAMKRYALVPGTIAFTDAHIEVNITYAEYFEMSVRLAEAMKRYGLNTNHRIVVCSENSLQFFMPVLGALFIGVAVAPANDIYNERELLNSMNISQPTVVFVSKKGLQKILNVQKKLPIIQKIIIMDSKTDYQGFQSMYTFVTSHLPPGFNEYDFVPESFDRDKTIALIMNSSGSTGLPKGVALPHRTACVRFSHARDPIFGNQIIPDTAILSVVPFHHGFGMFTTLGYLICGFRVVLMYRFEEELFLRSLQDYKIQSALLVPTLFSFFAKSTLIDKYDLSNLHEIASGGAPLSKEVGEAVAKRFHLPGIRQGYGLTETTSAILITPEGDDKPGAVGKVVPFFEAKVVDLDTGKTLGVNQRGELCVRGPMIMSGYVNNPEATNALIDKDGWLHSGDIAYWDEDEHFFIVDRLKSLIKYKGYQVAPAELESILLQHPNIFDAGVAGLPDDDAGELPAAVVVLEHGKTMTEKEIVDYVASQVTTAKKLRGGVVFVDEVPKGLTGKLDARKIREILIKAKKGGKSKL", "experiment": "firefly luciferase enzyme inhibitors, dose response, biochemical, luminescence (AID 1891)"}, "[15]": {"biological_target": "Paired box protein Pax-8 (Homo sapiens, UniProt Q06710)", "sequence (Q06710 whole entry)": "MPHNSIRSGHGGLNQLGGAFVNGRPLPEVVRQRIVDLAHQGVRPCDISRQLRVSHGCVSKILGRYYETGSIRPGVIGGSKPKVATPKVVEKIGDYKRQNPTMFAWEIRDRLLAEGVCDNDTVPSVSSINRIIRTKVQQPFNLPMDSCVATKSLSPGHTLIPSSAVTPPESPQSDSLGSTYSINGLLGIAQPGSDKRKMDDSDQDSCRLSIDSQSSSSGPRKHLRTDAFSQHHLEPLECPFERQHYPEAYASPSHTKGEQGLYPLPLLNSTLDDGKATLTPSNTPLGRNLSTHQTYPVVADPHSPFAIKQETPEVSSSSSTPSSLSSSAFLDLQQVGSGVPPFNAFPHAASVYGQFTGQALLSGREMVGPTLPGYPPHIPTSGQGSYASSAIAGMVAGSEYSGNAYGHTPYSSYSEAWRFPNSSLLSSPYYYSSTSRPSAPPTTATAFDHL", "experiment": "inhibitors of PAX8-driven TPO luciferase reporter, dose response, RMG-I cells, cherry-pick (AID 687027);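 note: luciferase reporter driven by Pax8 target thyroperoxidase promoter measured by SteadyGlo luminescence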", "format": "functional, cell-based"}, "[16]": {"biological_target": "Sphingosine 1-phosphate receptor 1 (Homo sapiens, UniProt P21453)", "sequence (P21453 whole entry)": "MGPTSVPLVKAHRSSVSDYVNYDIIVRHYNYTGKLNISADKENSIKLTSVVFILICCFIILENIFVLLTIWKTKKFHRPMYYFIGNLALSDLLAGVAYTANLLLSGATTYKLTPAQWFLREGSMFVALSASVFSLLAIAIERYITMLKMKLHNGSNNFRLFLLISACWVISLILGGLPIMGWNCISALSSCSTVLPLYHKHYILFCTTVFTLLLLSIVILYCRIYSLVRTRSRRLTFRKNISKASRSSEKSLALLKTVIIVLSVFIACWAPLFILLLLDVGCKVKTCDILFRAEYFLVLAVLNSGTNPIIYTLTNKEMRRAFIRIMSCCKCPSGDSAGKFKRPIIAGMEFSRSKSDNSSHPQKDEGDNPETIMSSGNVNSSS", "format": "functional"}, "[17]": {"system": "A-375", "experiment": "MITF: Counter assay: A375 proliferation Measured in Cell-Based System Using Plate Reader - 2084-03_Inhibitor_Dose_DryPowder_Activity. [Related pubchem assays (depositor defined):AID488944]", "format": "functional", "conditions": "Homo sapiens"}, "[18]": {"biological_target": "T6, Replicative DNA helicase DnaB (Mycobacterium tuberculosis, UniProt P9WMR3)", "T6 sequence (P9WMR3 whole entry)": "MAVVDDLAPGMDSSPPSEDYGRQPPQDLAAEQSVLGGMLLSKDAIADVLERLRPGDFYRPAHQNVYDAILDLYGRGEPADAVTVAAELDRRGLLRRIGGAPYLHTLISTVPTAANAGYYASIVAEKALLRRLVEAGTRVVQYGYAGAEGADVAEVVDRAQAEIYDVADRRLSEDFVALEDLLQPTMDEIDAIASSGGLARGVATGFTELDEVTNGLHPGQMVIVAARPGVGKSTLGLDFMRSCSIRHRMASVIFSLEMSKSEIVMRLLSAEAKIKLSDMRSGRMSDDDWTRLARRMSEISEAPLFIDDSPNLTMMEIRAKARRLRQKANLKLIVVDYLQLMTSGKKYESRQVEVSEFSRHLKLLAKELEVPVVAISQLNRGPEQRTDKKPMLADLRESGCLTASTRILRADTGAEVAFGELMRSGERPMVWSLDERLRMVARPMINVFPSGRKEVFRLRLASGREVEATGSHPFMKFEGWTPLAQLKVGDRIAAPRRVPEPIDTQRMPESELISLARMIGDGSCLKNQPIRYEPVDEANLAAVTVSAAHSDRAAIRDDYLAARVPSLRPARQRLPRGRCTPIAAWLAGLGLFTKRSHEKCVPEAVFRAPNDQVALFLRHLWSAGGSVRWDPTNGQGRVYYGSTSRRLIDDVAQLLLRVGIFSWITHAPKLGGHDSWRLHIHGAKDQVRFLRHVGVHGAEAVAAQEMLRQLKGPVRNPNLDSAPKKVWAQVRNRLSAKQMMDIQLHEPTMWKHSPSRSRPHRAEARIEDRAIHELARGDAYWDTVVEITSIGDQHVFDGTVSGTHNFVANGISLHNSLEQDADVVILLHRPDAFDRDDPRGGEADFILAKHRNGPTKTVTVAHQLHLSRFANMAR", "experiment": "DnaB intein splicing inhibitors, dose response, biochemical, cell-free fluorescence (AID 449749)", "format": "functional"}, "[19]": {"experiment": "Fluorescence Cell-Based Dose Response to Identify Inhibitors of Thrombin Receptor-Activating Peptide SFLLRN-Mediated P-Selectin Induction on Platelets. [Related pubchem assays: 1663 (Primary HTS), 1889 (retest at dose ), 1891 (counterscreen), 1678 (Project Summary)]", "format": "functional"}},
  "note": "Active and inactive are the calls of the source.",
  "data": [
    {"smiles": "CCOC(=O)/C(C#N)=C/c1ccc(C#N)cc1", "values": [
      {"measurement": "IC50", "setting": "[1]", "value": "> 50 µM (not active)"},
      {"measurement": "IC50", "setting": "[2]", "value": "> 50 µM (not active)"}
    ]},
    {"smiles": "CC1CCN(S(=O)(=O)c2ccc(C(C)C)cc2)CC1", "values": [
      {"measurement": "EC50", "setting": "[3]", "value": "> 29.9 µM (not active)"},
      {"measurement": "EC50", "setting": "[4]", "value": "> 53 µM (inactive)"},
      {"measurement": "EC50", "setting": "[5]", "value": "> 29.9 µM (not active)"},
      {"measurement": "EC50", "setting": "[6]", "value": "1.33 µM (active)"},
      {"measurement": "EC50", "setting": "[7]", "value": "1.12 µM (active)"}
    ]},
    {"smiles": "CS(=O)(=O)c1ncc(Cl)c(C(=O)Nc2ccc3ccccc3c2)n1", "values": [
      {"measurement": "IC50", "setting": "[8]", "value": "7.13 µM (active)"},
      {"measurement": "EC50", "setting": "[9]", "value": "4.84 µM (active)"},
      {"measurement": "EC50", "setting": "[10]", "value": "3.6 µM (active)"},
      {"measurement": "AC50", "setting": "[11]", "value": "> 35 µM (active)"},
      {"measurement": "IC50", "setting": "[12]", "value": "1.95 µM (active)"},
      {"measurement": "IC50", "setting": "[13]", "value": "2.07 µM (active)"},
      {"measurement": "EC50", "setting": "[14]", "value": "> 112 µM (not active)"},
      {"measurement": "AC50", "setting": "[15]", "value": "7.81 µM (active)"},
      {"measurement": "IC50", "setting": "[16]", "value": "> 5.53 µM (not active)"},
      {"measurement": "AC50", "setting": "[17]", "value": "> 35 µM (active)"},
      {"measurement": "AC50", "setting": "[18]", "value": "2.49 µM (active)"},
      {"measurement": "EC50", "setting": "[19]", "value": "< 30 µM (active)"}
    ]}
  ]
}
